# Test system: T1, trypsin from crevalle jack (Caranx hippos) pyloric caeca
# T1 construct: gene trypsin-like enzyme; native, purified from pyloric caeca (heat, ammonium sulfate, Sephadex G-75); mature N-terminus IVGGFECTPHVFAYQ
# Assay: p-nitroaniline release at […] nm, Michaelis-Menten fit
# Format: biochemical
# Settings: 0.1 M Tris-HCl pH 8.0; 0.02-2.4 mM BApNA
structure (smiles),measurement,value
"NC(N)=NCCCC(NC(=O)c1ccccc1)C(=O)Nc1ccc([N+](=O)[O-])cc1 (racemic) [BApNA, N-α-benzoyl-DL-arginine-p-nitroanilide]",Km,689 ± 50 µM

# From publication PMC3817308, “Metal-sensitive and thermostable trypsin from the crevalle jack (Caranx hippos) pyloric caeca: purification and characterization” (Chemistry Central Journal, 2013)
